Measured values from ChEMBL document CHEMBL1201862, “PubChem BioAssay data set” (2004).
Calls of active or inactive are those of the source.

Assays:
[1] = growth inhibition of yeast DHODH-expressing 3D7 parasites – SYBR Green, dry powder samples, dose response (AID 1159570); assay type: functional, cell-based;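 further: parasite growth measured after 72 hours of compound exposure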
[2] = toxicity to human HepG2 hepatoma cells – cell-based, plate reader, dry powder samples, cytotoxicity control, dose response (AID 1159569); assay type: functional;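 further: inhibitor potency with signal falling toward the positive control level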
[3] = P. falciparum Dd2 growth inhibitors, dose response, SYBR Green, cherry-picked samples (AID 1159567); assay type: functional, cell-based
[4] = Dd2 malaria parasite growth inhibition potency – SYBR Green, dry powder samples, dose response (AID 1159566); assay type: functional, cell-based;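 further: potency for growth inhibition with lower SYBR green DNA signal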
[5] = toxicity to human hepatoma HepG2 cells – cell-based, cherry-picked samples, cytotoxicity control, dose response (AID 1159577); assay type: functional
[6] = growth inhibition of PfATP4-mutant resistant parasites – NITD609-resistant line, SYBR Green, dry powder, dose response (AID 1159571); assay type: functional, cell-based;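 further: parasites synchronized at ring stage by sorbitol before testing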
Kallikrein-7 = Kallikrein-7 (Homo sapiens, UniProt P49862); experiment: Fluorescence Intensity-based biochemical primary high throughput dose response assay to identify activators of kallikrein-7 (K7) zymogen.
Estrogen receptor beta = Estrogen receptor beta (Homo sapiens, UniProt Q92731);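 further: recombinant ER-beta bound to coactivator SRC1 peptide in presence of estradiol agonist; inhibitors block coactivator peptide binding and lower the FRET signal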
Chain of Estrogen receptor beta (Q92731 whole entry): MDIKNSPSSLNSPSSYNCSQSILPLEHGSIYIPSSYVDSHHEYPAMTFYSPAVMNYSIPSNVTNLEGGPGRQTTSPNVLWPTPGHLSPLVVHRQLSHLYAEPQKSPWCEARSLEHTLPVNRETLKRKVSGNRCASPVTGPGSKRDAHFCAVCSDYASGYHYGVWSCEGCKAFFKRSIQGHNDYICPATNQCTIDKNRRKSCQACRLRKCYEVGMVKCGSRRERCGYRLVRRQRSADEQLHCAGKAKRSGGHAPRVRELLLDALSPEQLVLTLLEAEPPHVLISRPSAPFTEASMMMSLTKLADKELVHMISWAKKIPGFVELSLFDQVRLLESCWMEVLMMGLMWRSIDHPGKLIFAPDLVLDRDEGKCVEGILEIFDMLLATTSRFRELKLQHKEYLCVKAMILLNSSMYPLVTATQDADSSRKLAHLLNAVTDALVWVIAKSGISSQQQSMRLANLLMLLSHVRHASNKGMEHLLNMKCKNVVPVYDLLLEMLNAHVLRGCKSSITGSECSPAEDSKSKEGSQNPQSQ

Chain of Kallikrein-7 (P49862 whole entry): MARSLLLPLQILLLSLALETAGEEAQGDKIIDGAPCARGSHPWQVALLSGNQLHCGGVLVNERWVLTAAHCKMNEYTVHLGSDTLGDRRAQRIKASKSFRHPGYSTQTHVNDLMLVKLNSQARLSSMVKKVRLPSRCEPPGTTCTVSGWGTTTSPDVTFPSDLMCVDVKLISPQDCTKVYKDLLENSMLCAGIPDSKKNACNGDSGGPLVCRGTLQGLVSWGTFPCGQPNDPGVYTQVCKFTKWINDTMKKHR

Structure (SMILES)	EC50 (Kallikrein-7)	AC50 [3]	AC50 [5]	other results
COc1ccc2c3c(n(C)c2c1)[C@H](CO)NCC31CCN(Cc2ccc(-c3ccccn3)cc2)CC1	–	0.322 µM (active)	20.3 µM (active)	AC50 [1]: 0.265 µM (active); AC50 [2]: 20 µM (active); AC50 [4]: 0.135 µM (active); AC50 [6]: 0.222 µM (active)
CCOC(=O)CC(=O)CSc1nc(C)cc(-c2cccnc2)c1C#N	8.07 µM (active)	–	–	–
Cc1cc(C)n2cc(CSCc3ccccc3)nc2n1	49.5 µM (inactive)	–	–	–
COc1ccc2c3c([nH]c2c1)[C@H](CO)N(C(=O)C1CCCC1)CC31CCN(Cc2cccc(F)c2)CC1	–	3.49 µM (active)	9.75 µM (active)	–
CCOc1ccc(-c2cc(C(=O)N3CCN(C)CC3)c3ccccc3n2)cc1	> 69.5 µM (inactive)	–	–	–
O=C(Nc1nnc(C2CCCO2)s1)c1ccc(Br)cc1 (configuration not stated)	–	–	–	IC50 (Estrogen receptor beta): > 50 µM (not active)
